Here are results for two substances from US8354522B2, “Immunostimulatory oligoribonucleotides” (Coley Pharmaceutical GmbH, priority 2005, dated 2013).

In data set [1] the test system is isolated monocytes and mDC. Nature of the data set: TNF-alpha and IL-12p40 production upon isolated monocytes and mDC stimulation. The format is cell-based, human. Conditions: 0.5 μM ORN complexed to 10 μg/ml DOTAP, 16 h. How it is done: FIG. 2 is a set of bar graphs depicting ORN induced cytokine production upon isolated pDC (FIG. 2a), monocytes (FIG. 2b) and mDC (FIG. 2c) stimulation. Cells were stimulated with 0.5 μM ORN complexed to 10 μg/ml DOTAP, 0.5 μM CpG ODN or DOTAP or media alone and IFN-alpha (FIG. 2a), TNF-alpha […] and IL-12p40 (FIG. 2c) were measured.
A similar assay testing different ORN sequences was performed using isolated pDC, monocytes and mDC stimulation. Cells were stimulated with 0.5 μM ORN complexed to 10 μg/ml DOTAP, 0.5 μM CpG ODN or DOTAP or media alone. After 16 h the supernatants were harvested and IFN-alpha, TNF-alpha and IL-12p40 levels were measured by ELISA.

In data set [2] the test system is Human PBMC. Nature of the data set: Cytokine production upon human PBMC stimulation (ORN complexed to DOTAP, 16 h, ELISA). Format: cell-based. Set-up: key to IFN-alpha / TNF-alpha: +: cytokine production; −: no cytokine production. Conditions: for IFN-alpha / TNF-alpha: human PBMC stimulated for 16 h, supernatant ELISA. Put shortly: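 Healthy-donor PBMCs were stimulated for 16 h with ORN complexed to DOTAP (25 μg/ml), titrated in 7 steps of 1/3 from 2 μM (to 0.9 nM). IFN-alpha and TNF-alpha in supernatants were measured by ELISA. Mean/max activity at 0.6 μM and EC50 came from 3-6 donors over two experiments.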

For data set [3], the system named is CD123+ purified pDC. Nature of the data set: CD86 surface marker expression upon human pDC stimulation (FACS). The format is cell-based. Conditions: 1 μM ORN complexed to 25 μg/ml DOTAP, 16 h. Here is the method: FIG. 10 is a series of graphs showing surface marker expression upon human pDC stimulation with AU-rich or GU-rich ORN. CD123+ purified pDC (FIGS. 10a and 10b) or isolated monocytes (FIG. 10c) were incubated with 1 μM ORN complexed to 25 μg/ml DOTAP or DOTAP alone (FIG. 10a) or indicated amounts of ORN complexed to DOTAP or DOTAP alone (FIGS. 10b-10c). After 16 h cells were harvested and stained with CD123, CD11c and HLA-DR antibodies (FIGS. 10a and 10b) or CD14 and CD19 (FIG. 10c). Cell surface marker activation was measured by CD86 (FIGS. 10a and 10b) or CD80 (FIG. 10c) expression. […] FIG. 10b is a graph illustrating that CD86 surface marker expression upon human pDC stimulation is dose-dependent.
CD123+ purified pDC (FIGS. 10a and 10b) or isolated monocytes (FIG. 10c) were incubated with 1 μM ORN complexed to 25 μg/ml DOTAP or DOTAP alone (FIG. 10a) or indicated amounts of ORN complexed to DOTAP or DOTAP alone (FIGS. 10b-10c). After 16 h cells were harvested and stained with CD123, CD11c and HLA-DR antibodies (FIGS. 10a and 10b) or CD14 and CD19 (FIG. 10c). […] This activation was determined to be dose-dependent (FIG. 10b).

On to “U*U*A*U*U*A*U*U*A*U*U*A*U*U*A*U*U*A*U*U (UUAUUAUUAUUAUUAUUAUU; chemistry not fully specified) [SEQ ID NO: 13]”, for which, in data set [1], the “IL-12p40 production (in words)” value was “clear TNF-alpha and IL-12p40 production”; the “TNF-alpha production (in words)” value was “clear TNF-alpha and IL-12p40 production”. For the same substance, in data set [2] (human PBMC), the “IFN-alpha production upon PBMC stimulation (in words)” value is “no IFN-alpha cytokine production”. Further, in data set [2], the IFN-alpha result is reported as “−” and the TNF-alpha result is listed as “+”. Besides, in data set [3], the “CD86 surface marker expression” value is “very little CD86 activation”.

With “U*U*G*U*U*G*U*U*G*U*U*G*U*U*G*U*U*G*U*U (UUGUUGUUGUUGUUGUUGUU; listed as RNA, chemistry not fully specified) [SEQ ID NO: 21]”, in data set [1], the “IL-12p40 production (in words)” value was “clear TNF-alpha and IL-12p40 production”; the “TNF-alpha production (in words)” value is “clear TNF-alpha and IL-12p40 production”. Besides, in data set [2], the IFN-alpha entry is recorded as “+” and the TNF-alpha result is recorded as “+”. Further, in data set [3], the “CD86 surface marker expression” value is on record as “significant CD86 activation”.
